Measured values as given in patent US11028079B2 (ConverGene LLC, priority 2015, dated 2021).

target: T1, BRD4 bromodomains (Homo sapiens, UniProt O60885); assay: BROMOscan bromodomain competition binding assay (DiscoveRx); settings: Kd from 11 compound concentrations ranging from 0 to 10 μM, read-out: BROMOscan Relative Activity
T1 construct: fused on or other part: T7 phage capsid protein (phage-display fusion; the phage DNA is read out by qPCR)
How it was run: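 Compounds in 0.1% DMSO/0.9% MEG competed with a solid-phase acetylated peptide for T7 phage-fused BRD4 bromodomains, with the retained bromodomain measured by qPCR.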

| Kd | SMILES |
| --- | --- |
| 500 to 5000 nM | Cc1noc(C)c1-c1ccc2nc(N3CCc4[nH]ncc4C3)nc(NCc3cccc(Cl)c3)c2c1 [Example 290, N-(3-chlorobenzyl)-6-(3,5-dimethylisoxazol-4-yl)-2-(1,4,6,7-tetrahydro-5H-pyrazolo[4,3-c]pyridin-5-yl)quinazolin-4-amine] |
| 500 to 5000 nM | Cc1noc(C)c1-c1ccc2nc(C(=O)N3CCC4(CC3)CC(O)C4)nc(N3CCOC[C@@H]3c3ccccc3)c2c1 [Example 316, (S)-(6-(3,5-dimethylisoxazol-4-yl)-4-(3-phenylmorpholino)quinazolin-2-yl)(2-hydroxy-7-azaspiro[3.5]nonan-7-yl)methanone] |
| < 500 nM | Cc1noc(C)c1-c1ccc2nc(C(=O)NC3CS(=O)(=O)C3)nc(NCc3cccc(Cl)c3)c2c1 [Example 271, 4-((3-chlorobenzyl)amino)-6-(3,5-dimethylisoxazol-4-yl)-N-(1,1-dioxidothietan-3-yl)quinazoline-2-carboxamide] |
| < 500 nM | Cc1noc(C)c1-c1ccc2nc(C(=O)N[C@H]3CC[C@H](O)CC3)cc(NCc3cccc(Cl)c3)c2c1 [Example 274, 4-((3-chlorobenzyl)amino)-6-(3,5-dimethylisoxazol-4-yl)-N-((trans)-4-hydroxycyclohexyl)quinoline-2-carboxamide] |
| < 500 nM | Cc1noc(C)c1-c1ccc2nc(N3CCN(C[C@H](C)O)CC3)nc(N3CCOC[C@@H]3c3ccccc3)c2c1 [Example 308, (S)-1-(4-(6-(3,5-dimethylisoxazol-4-yl)-4-((S)-3-phenylmorpholino)quinazolin-2-yl)piperazin-1-yl)propan-2-ol] |
| < 500 nM | Cc1cc(CNC(=O)c2nc(NCc3cccc(Cl)c3)c3cc(-c4c(C)noc4C)ccc3n2)ccn1 [Example 249, 4-((3-chlorobenzyl)amino)-6-(3,5-dimethylisoxazol-4-yl)-N-((2-methylpyridin-4-yl)methyl)quinazoline-2-carboxamide] |
| < 500 nM | Cc1noc(C)c1-c1ccc2nc(N3CCC4(CCC(=O)N4)CC3)nc(N3CCOC[C@@H]3c3ccccc3)c2c1 [Example 314, (S)-8-(6-(3,5-dimethylisoxazol-4-yl)-4-(3-phenylmorpholino)quinazolin-2-yl)-1,8-diazaspiro[4.5]decan-2-one] |
| < 500 nM | Cc1nn(C)cc1CNC(=O)c1nc(NCc2cccc(Cl)c2)c2cc(-c3c(C)noc3C)ccc2n1 [Example 205, 4-((3-chlorobenzyl)amino)-N-((1,3-dimethyl-1H-pyrazol-4-yl)methyl)-6-(3,5-dimethylisoxazol-4-yl)quinazoline-2-carboxamide] |
| < 500 nM | Cc1nc(C)c(CNC(=O)c2nc(NCc3cccc(Cl)c3)c3cc(-c4c(C)noc4C)ccc3n2)s1 [Example 260, 4-((3-chlorobenzyl)amino)-6-(3,5-dimethylisoxazol-4-yl)-N-((2,4-dimethylthiazol-5-yl)methyl)quinazoline-2-carboxamide] |
| < 500 nM | Cc1noc(C)c1-c1ccc2nc(N3CCN(S(C)(=O)=O)CC3)nc(N3CCOC[C@@H]3c3ccccc3)c2c1 [Example 269, (S)-4-(6-(3,5-dimethylisoxazol-4-yl)-2-(4-(methylsulfonyl)piperazin-1-yl)quinazolin-4-yl)-3-phenylmorpholine] |
| < 500 nM | Cc1nn(C)cc1CNC(=O)c1nc(N2CCOC[C@@H]2c2ccccc2)c2cc(-c3c(C)noc3C)ccc2n1 [Example 281, (S)—N-((1,3-dimethyl-1H-pyrazol-4-yl)methyl)-6-(3,5-dimethylisoxazol-4-yl)-4-(3-phenylmorpholino)quinazoline-2-carboxamide] |

More lines, now with the values behind:

| SMILES | Kd |
| --- | --- |
| Cc1nocc1-c1ccc2nc(N3CCN(CCN(C)C)CC3)nc(NCc3cccc(Cl)c3)c2c1 [Example 93, N-(3-chlorobenzyl)-2-(4-(2-(dimethylamino)ethyl)piperazin-1-yl)-6-(3-methylisoxazol-4-yl)quinazolin-4-amine] | < 500 nM |
| Cc1noc(C)c1-c1ccc2nc(NC3CCN(C)CC3)nc(NCc3cccc(Cl)c3)c2c1 [Example 7, N4-(3-chlorobenzyl)-6-(3,5-dimethylisoxazol-4-yl)-N2-(1-methylpiperidin-4-yl)quinazoline-2,4-diamine] | < 500 nM |
| Cc1noc(C)c1-c1ccc2nc(N3CCN(CC(C)(C)O)CC3)nc(NCc3cccc(Cl)c3)c2c1 [Example 137, 1-(4-(4-((3-chlorobenzyl)amino)-6-(3,5-dimethylisoxazol-4-yl)quinazolin-2-yl)piperazin-1-yl)-2-methylpropan-2-ol] | 500 to 5000 nM |
| CN(C)CCN1CCN(c2nc(NCc3cccc(Cl)c3)c3cc(-c4ccc(O)nc4)ccc3n2)CC1 [Example 67, 5-(4-((3-chlorobenzyl)amino)-2-(4-(2-(dimethylamino)ethyl)piperazin-1-yl)quinazolin-6-yl)pyridin-2-ol] | 500 to 5000 nM |
| Cc1noc(C)c1-c1ccc2cc(N3CCN(CCN(C)C)CC3)nc(NCc3cccc(Cl)c3)c2c1 [Example 43, N-(3-chlorobenzyl)-3-(4-(2-(dimethylamino)ethyl)piperazin-1-yl)-7-(3,5-dimethylisoxazol-4-yl)isoquinolin-1-amine] | 500 to 5000 nM |
| Cc1noc(C)c1-c1ccc2nc(N3CCN(C(=O)c4cccnc4)CC3)nc(NCc3cccc(Cl)c3)c2c1 [Example 35, (4-(4-((3-chlorobenzyl)amino)-6-(3,5-dimethylisoxazol-4-yl)quinazolin-2-yl)piperazin-1-yl)(pyridin-3-yl)methanone] | < 500 nM |
| Cc1noc(C)c1-c1ccc2nc(N3CCN(CCN(C)C)CC3)nc(N(C)Cc3cccc(Cl)c3)c2c1 [Example 85, N-(3-chlorobenzyl)-2-(4-(2-(dimethylamino)ethyl)piperazin-1-yl)-6-(3,5-dimethylisoxazol-4-yl)-N-methylquinazolin-4-amine] | < 500 nM |
| Cc1noc(C)c1-c1ccc2nc(-c3cnn(CC(C)(C)O)c3)nc(NC3(c4cccc(Cl)c4)CC3)c2c1 [Example 182, 1-(4-(4-((1-(3-chlorophenyl)cyclopropyl)amino)-6-(3,5-dimethylisoxazol-4-yl)quinazolin-2-yl)-1H-pyrazol-1-yl)-2-methylpropan-2-ol] | < 500 nM |
| Cc1noc(C)c1-c1ccc2nc(-c3cnn(CC(=O)O)c3)nc(NCc3cccc(Cl)c3)c2c1 [Example 166, 2-(4-(4-((3-chlorobenzyl)amino)-6-(3,5-dimethylisoxazol-4-yl)quinazolin-2-yl)-1H-pyrazol-1-yl)acetic acid] | < 500 nM |
| CC(=O)N1CCN(c2nc(NCc3cncc(Cl)c3)c3cc(-c4c(C)noc4C)ccc3n2)CC1 [Example 195, 1-(4-(4-(((5-chloropyridin-3-yl)methyl)amino)-6-(3,5-dimethylisoxazol-4-yl)quinazolin-2-yl)piperazin-1-yl)ethanone] | < 500 nM |
| Cn1cc(-c2ccc3nc(N4CCN(C(=O)CO)CC4)nc(NCc4cccc(Cl)c4)c3c2)ccc1=O [Example 106, 5-(4-((3-chlorobenzyl)amino)-2-(4-(2-hydroxyacetyl)piperazin-1-yl)quinazolin-6-yl)-1-methylpyridin-2(1H)-one] | < 500 nM |
| Cc1noc(C)c1-c1ccc2nc(-c3cnn(CC(=O)N(C)C)c3)nc(NCc3cncc(Cl)c3)c2c1 [Example 140, 2-(4-(4-(((5-chloropyridin-3-yl)methyl)amino)-6-(3,5-dimethylisoxazol-4-yl)quinazolin-2-yl)-1H-pyrazol-1-yl)-N,N-dimethylacetamide] | < 500 nM |
| Cn1cc(-c2ccc3nc(Cl)nc(NCc4cccc(Cl)c4)c3c2)ccc1=O [Example 100, 5-(2-chloro-4-((3-chlorobenzyl)amino)quinazolin-6-yl)-1-methylpyridin-2(1H)-one] | > 5000 nM |
| Cc1noc(C)c1-c1ccc2nc(-c3cnn(C4COC4)c3)nc(NCc3cccc(Cl)c3)c2c1 [Example 61, N-(3-chlorobenzyl)-6-(3,5-dimethylisoxazol-4-yl)-2-(1-(oxetan-3-yl)-1H-pyrazol-4-yl)quinazolin-4-amine] | < 500 nM |
| Cc1noc(C)c1-c1ccc2nc(-c3cnn(CCO)c3)nc(NCc3cncc(Cl)c3)c2c1 [Example 144, 2-(4-(4-(((5-chloropyridin-3-yl)methyl)amino)-6-(3,5-dimethylisoxazol-4-yl)quinazolin-2-yl)-1H-pyrazol-1-yl)ethanol] | < 500 nM |
| Cc1noc(C)c1-c1ccc2nc(N3CCN(CC(C)O)CC3)nc(NCc3cccc(Cl)c3)c2c1 (centres unmarked) [Example 45, 1-(4-(4-((3-chlorobenzyl)amino)-6-(3,5-dimethylisoxazol-4-yl)quinazolin-2-yl)piperazin-1-yl)propan-2-ol] | < 500 nM |
| CN(C)C(=O)Cn1cc(-c2nc(NCc3cncc(Cl)c3)c3cc(-c4ccc(=O)n(C)c4)ccc3n2)cn1 [Example 146, 2-(4-(4-(((5-chloropyridin-3-yl)methyl)amino)-6-(1-methyl-6-oxo-1,6-dihydropyridin-3-yl)quinazolin-2-yl)-1H-pyrazol-1-yl)-N,N-dimethylacetamide] | < 500 nM |
| Cc1noc(C)c1-c1ccc2nc(N3CCC(S(C)(=O)=O)CC3)nc(NCc3cncc(Cl)c3)c2c1 [Example 154, N-((5-chloropyridin-3-yl)methyl)-6-(3,5-dimethylisoxazol-4-yl)-2-(4-(methylsulfonyl)piperidin-1-yl)quinazolin-4-amine] | < 500 nM |
| Cc1noc(C)c1-c1ccc2nc(N3CCN(CCN(C)C)CC3)nc(NCc3ccc(Cl)cc3)c2c1 [Example 95, N-(4-chlorobenzyl)-2-(4-(2-(dimethylamino)ethyl)piperazin-1-yl)-6-(3,5-dimethylisoxazol-4-yl)quinazolin-4-amine] | 500 to 5000 nM |
| Cc1noc(C)c1-c1ccc2nc(N3CCN(CCN(C)C)CC3)nc(NCc3cccc(Br)c3)c2c1 [Example 75, N-(3-bromobenzyl)-2-(4-(2-(dimethylamino)ethyl)piperazin-1-yl)-6-(3,5-dimethylisoxazol-4-yl)quinazolin-4-amine] | < 500 nM |
| Cc1noc(C)c1-c1ccc2nc(C(=O)NC3CCN(S(C)(=O)=O)CC3)nc(NCc3cccc(Cl)c3)c2c1 [Example 201, 4-((3-chlorobenzyl)amino)-6-(3,5-dimethylisoxazol-4-yl)-N-(1-(methylsulfonyl)piperidin-4-yl)quinazoline-2-carboxamide] | < 500 nM |
